The values that follow come from patent publication US7569724B2, “Carbamic acid compounds comprising an amide linkage as HDAC inhibitors” (Topotarget UK Limited, priority 2000, dated 2009).

In data set [1] the test system is K11 HPV E7 transformed human keratinocyte line. Put plainly: Secondary assay: cell proliferation WST-1, K11. The class given is cell-based. The settings on record: for pIC50: Homo sapiens, Keratinocyte, read-out: Cell Proliferation Inhibition WST-1 (IC50 unless otherwise specified) K11. The method, then: (§1) Compounds with HDAC inhibition activity, as determined using the primary assay, were subsequently evaluated using secondary cell-based assays. The following cell lines were used:
K11—HPV E7 transformed human keratinocyte line provided by Pidder Jansen-Duerr, Institut für Biomedizinische Alternsforschung, Innsbruck, Austria.
(§2) Cells were plated in 96-well plates at 3-10×10^3 cells/well in 100 μL of culture medium. The following day, different concentrations of candidate compounds were added and the cells incubated at 37° C. for 48 h. Subsequently, 10 μL/well of WST-1 reagent was added and the cells reincubated for 1 hour. After the incubation time, absorbance was measured.
(§3) WST-1 is a tetrazolium salt which is cleaved to formazan dye by cellular enzymes. An expansion in the number of viable cells results in an increase in the overall activity of mitochondrial dehydrogenases in the sample. This augmentation in the enzyme activity leads to an increase in the amount of formazan dye formed, which directly correlates to the number of metabolically active cells in the culture. The formazan dye produced is quantified by a scanning multiwell spectrophotometer by measuring the absorbance of the dye solution at 450 nm wavelength (reference wavelength 690 nm).
(§4) Percent activity (% activity) in reducing the number of viable cells was calculated for each test compound as: % activity={(S^C−B)/(S^o−B)}×100 wherein S^C denotes signal measured in the presence of the compound being tested, S^o denotes signal measured in the absence of the compound being tested, and B denotes the background signal measured in blank wells containing medium only.
(§5) IC50 values were calculated using the software package Prism 3.0 (GraphPad software Inc., San Diego, Calif.), setting top value at 100 and bottom value at 0.
For orientation: Formazan colour is commonly taken as a measure of viable cells.

The next data set deals with HeLa cells. The data set is described as follows: Secondary assay: cell proliferation WST-1, HeLa. The class given is cell-based. The note with it: Homo sapiens, 48 h, read-out: Cell Proliferation Inhibition WST-1 (IC50 unless otherwise specified) HeLa. The method in brief: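 Absorbance at 450 nm (reference 690 nm); % activity vs untreated after blank subtraction, IC50 fitted with top 100 and bottom 0.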

The test system of the next data set is JURKAT human T-cell line. Put plainly: Secondary assay: cell proliferation WST-1, Jurkat. The class given is cell-based. The settings on record: 48 h; for pIC50: Homo sapiens, read-out: Cell Proliferation Inhibition WST-1 (IC50 unless otherwise specified) Jurkat. The method, then:
as §1
JURKAT—Human T-cell line (ATCC no. TIB-152).
as §2, §3, §4, §5

The next data set deals with HDAC (HeLa cell extract). The data set is described as follows: Primary assay: deacetylase activity, HeLa cell extract as source of HDAC. The class given is biochemical, human. The settings on record: HeLa cell extract; for HDAC Inhibition HeLa, percent: @ 500 nM. The method in brief:
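Crude HeLa extract (freeze-thaw in 60 mM TrisCl pH 8.0, 450 mM NaCl, 30% glycerol) was incubated 1 h at 37° C with a [³H]acetyl-labelled histone H4 N-terminal peptide in 20 mM Tris pH 7.4, 10% glycerol.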

The mark [2] stands for this setting: read-out: HDAC Inhibition (IC50 unless otherwise specified) HeLa.

pIC50: −log10 of the molar value. Where two headings read alike, the source gives them in different places.

Turning to `O=C(/C=C/c1ccc(Cl)cc1F)NCCCCCC(=O)NO` [PX117719, 3-(4-Chloro-2-fluoro-phenyl)-N-(5-hydroxycarbamoyl-pentyl)-acrylamide], the values for the pIC50 (in data set [1] (48 h); with HeLa cells; in the data set with JURKAT human T-cell line) were 6.03, 5.17 and 6.25, respectively.

For orientation: melting point means the temperature of the solid-liquid transition. Compound `O=C(CCCCCNC(=O)CC/C=C/c1ccccc1)NO` [PX117797, (E)-N-[6-(Hydroxyamino)-6-oxohexyl]-5-phenyl-4-pentenamide] displayed a melting point of 131 to 133 °C. The pIC50 in the data set on HDAC (HeLa cell extract) (setting [2]) was 6.16. For the same compound, in data set [1] (48 h), the pIC50 was 4.68. The pIC50 in the data set on HeLa cells is 4.68. The pIC50 in the data set on JURKAT human T-cell line was 5.25.

Take `O=C(CCCCCNC(=O)c1ccc2ccccc2c1)NO` [PX105687, Naphthalene-2-carboxylic acid (5-hydroxycarbamoylpentyl)amide]: the pIC50 in data set [1] (48 h) is 5.59; in the data set with JURKAT human T-cell line, 6.40.

With `O=C(CCCCCNC(=O)CC=C(c1ccccc1)c1ccccc1)NO` [PX117454, E-4,4-Diphenylbut-3-enoic acid (5-hydroxycarbamoylpentyl)amide], the pIC50 in the data set on HDAC (HeLa cell extract) (setting [2]) was 6.58; in data set [1] (48 h), 4.89; with HeLa cells, 4.82; with JURKAT human T-cell line it was 5.47.

On to `CC(C)(C(=O)NCCCCCC(=O)NO)c1ccc(Cl)cc1` [PX117722, 6-[2-(4-Chlorophenyl)-2-methyl-propionylamino]-hexanoic acid hydroxyamide], for which the pIC50 in the data set with HDAC (HeLa cell extract) (setting [2]) is less than 7.00; in data set [1] (48 h) it was less than 4.52; with JURKAT human T-cell line, 5.06.

Consider `O=C(/C=C/c1ccc(C(F)(F)F)cc1)NCCCCCC(=O)NO` [PX117717, N-(5-Hydroxycarbamoyl-pentyl)-3-(4-trifluoromethyl-phenyl)-acrylamide], for which the melting point fell in the range of 132 to 134 °C. The pIC50 in the data set on HDAC (HeLa cell extract) (setting [2]) was 7.66. In data set [1] (48 h), the pIC50 is 5.63. Further, in the data set on HeLa cells, the pIC50 is 5.23. Further, in the data set with JURKAT human T-cell line, the pIC50 was 6.39.

For `O=C(CCCCCNC(=O)Cc1ccccc1OCc1ccccc1)NO` [PX117728], the pIC50 in the data set with HDAC (HeLa cell extract) (setting [2]) is less than 7.00; in data set [1] (48 h), 4.55; in the data set with JURKAT human T-cell line, 5.39.

Regarding `O=C(CCCCCCC(=O)NCCc1ccccc1)NO` [PX117419, Octanedioic acid hydroxyamide phenethyl-amide], the “HDAC Inhibition HeLa, percent” value in the data set with HDAC (HeLa cell extract) came to 46% @ 500 nM. The results for the pIC50 (in data set [1] (48 h); in the data set on HeLa cells; in the data set on JURKAT human T-cell line) were less than 4.52, 4.89 and 5.46, respectively.

With `O=C(/C=C/c1cccc(Oc2ccccc2)c1)NCCCCCC(=O)NO` [PX117430, E-N-(5-Hydroxycarbamoylpentyl)-3-(3-phenoxyphenyl)acrylamide], the pIC50 was 7.07 in the data set with HDAC (HeLa cell extract) (setting [2]), 5.36 in data set [1] (48 h), 4.57 in the data set on HeLa cells and 5.34 with JURKAT human T-cell line.

`CN(CCCCCC(=O)NO)C(=O)/C=C/C=C/c1ccccc1` [PX116234]: the melting point lay within 145 to 147 °C. Besides, the pIC50 with HDAC (HeLa cell extract) (setting [2]) is 7.82. The pIC50 in data set [1] (48 h) was 5.44. The pIC50 with HeLa cells is 5.47. Further, the pIC50 with JURKAT human T-cell line is 5.57.

`O=C(CCCCCCNC(=O)c1ccc2ccccc2c1)NO` [PX106493, Naphthalene-2-carboxylic acid (6-hydroxycarbamoyl-hexyl)-amide] returned a melting point of 136 to 137 °C. Moreover, the pIC50 in data set [1] (48 h) was 5.68. Besides, the pIC50 in the data set with HeLa cells is 6.44. For the same compound, in the data set with JURKAT human T-cell line, the pIC50 was 6.70.

`O=C(CCCCCNC(=O)c1sccc1OCc1ccccc1)NO` [PX117723]: the “HDAC Inhibition HeLa, percent” value in the data set on HDAC (HeLa cell extract) is given as 46% @ 500 nM. Besides, the figures for the pIC50 (in data set [1] (48 h); in the data set on JURKAT human T-cell line) were 5.00 and 5.92, respectively.

Take `O=C(C=C(c1ccccc1)c1ccccc1)NCCCCCC(=O)NO` [PX117436, E-N-(5-Hydroxycarbamoylpentyl)-3,3-diphenylacrylamide]: the “HDAC Inhibition HeLa, percent” value with HDAC (HeLa cell extract) turned out to be 64% @ 500 nM. Also, the pIC50 in data set [1] (48 h) is less than 4.52; in the data set with HeLa cells it was 5.07; in the data set on JURKAT human T-cell line, 5.46.

On to `O=C(/C=C/c1cccc(NC(=O)/C=C/C=C/c2ccccc2)c1)NO` [PX117706, N-{3-[(E)-3-(Hydroxyamino)-3-oxo-1-propenyl]phenyl}-5-phenyl-(2E,4E)-pentadienamide], for which the pIC50 is 6.49 in the data set with HDAC (HeLa cell extract) (setting [2]), 5.16 in data set [1] (48 h), 4.52 with HeLa cells and 5.74 in the data set on JURKAT human T-cell line.

As to `O=C(/C=C/c1cccn1-c1ccc(Cl)cc1)NCCCCCC(=O)NO` [PX116235, E-3-[1-(4-Chlorophenyl)-1H-pyrrol-2-yl]-N-(5-hydroxycarbamoylpentyl)acrylamide], the pIC50 in the data set with HDAC (HeLa cell extract) (setting [2]) was 8.00; in data set [1] (48 h), 5.59; with HeLa cells it was 6.00; in the data set on JURKAT human T-cell line, 6.15.

Turning to `O=C(CCCCCNC(=O)[C@H](Cc1c[nH]c2ccccc12)NC(=O)c1ccc2ccccc2c1)NO` [PX117783, (S)-Naphthalene-2-carboxylic acid [1-(5-hydroxycarbamoyl-pentylcarbamoyl)-2-(1H-indol-3-yl)-ethyl]-amide], the pIC50 was 7.00 in the data set with HDAC (HeLa cell extract) (setting [2]); 5.01 in data set [1] (K11, 48 h); 5.22 with HeLa cells; 5.80 with JURKAT human T-cell line.

For `O=C(/C=C/C=C(c1ccccc1)c1ccccc1)NCCCCCC(=O)NO` [PX117437, 2E-5,5-Diphenylpenta-2,4-dienoic acid (5-hydroxycarbamoylpentyl)amide], in the data set with HDAC (HeLa cell extract), the “HDAC Inhibition HeLa, percent” value came to 95% @ 500 nM. The values for the pIC50 (in data set [1] (48 h); in the data set with HeLa cells; with JURKAT human T-cell line) were 5.47, 5.43 and 5.85, respectively.

As to `O=C(CCCCCNC(=O)[C@H](Cc1c[nH]c2ccccc12)NC(=O)CCCNC(=O)OCc1ccccc1)NO` [PX117785, (S)-Carbamic acid, [4-[[2-[[6-(hydroxyamino)-6-oxohexyl]amino]-1-(1H-indol-3-ylmethyl)-2-oxoethyl]amino]-4-oxobutyl]-, phenylmethyl ester], the pIC50 with HDAC (HeLa cell extract) (setting [2]) was 6.72. The “Cell Proliferation Inhibition WST-1 (IC50 unless otherwise specified) K11” value in data set [1] (K11, 48 h) is “Inactive”. Besides, in the data set with JURKAT human T-cell line, the “Cell Proliferation Inhibition WST-1 (IC50 unless otherwise specified) Jurkat” value is given as “Inactive”.

Consider `C/C(C(=O)NCCCCCC(=O)NO)=C(/C)c1ccccc1` [PX117737, E-2-Methyl-3-phenylbut-2-enoic acid (5-hydroxycarbamoylpentyl)amide], for which the pIC50 in the data set on HDAC (HeLa cell extract) (setting [2]) was 5.92; in data set [1] (48 h) it was less than 4.52; in the data set on HeLa cells it was 4.49; in the data set on JURKAT human T-cell line, 5.66.

Turning to `O=C(CCCCCNC(=O)[C@H](Cc1c[nH]c2ccccc12)NC(=O)CCCc1ccccc1)NO` [PX117407, N-hydroxy-6-({(2S)-3-(1H-indol-3-yl)-2-[(4-phenylbutanoyl)amino]-propanoyl}amino)-hexanamide], the melting point fell in the range of 106 to 108 °C. Besides, in the data set on HDAC (HeLa cell extract), the “HDAC Inhibition HeLa, percent” value is reported as 40% @ 500 nM. Also, the pIC50 in the data set on HeLa cells was 4.89.

Regarding `O=C(CCCCCNC(=O)CC/C=C\c1ccccc1)NO` [PX117444, (Z)-N-[6-(Hydroxyamino)-6-oxohexyl]-5-phenyl4-pentenamide], the melting point lay within 101 to 103 °C. The pIC50 in the data set with HDAC (HeLa cell extract) (setting [2]) was 6.16. The pIC50 in the data set on HeLa cells was 4.35.

For the compound `O=C(CCCCCNC(=O)c1ccc(Oc2ccccc2)cc1)NO` [PX117726], the “HDAC Inhibition HeLa, percent” value in the data set on HDAC (HeLa cell extract) is listed as 35% @ 500 nM. The results for the pIC50 (in data set [1] (48 h); in the data set with JURKAT human T-cell line) were 5.39 and 5.00, respectively.

The compound `CN(C)c1ccc(/C=C/C=C/C(=O)NCCCCCC(=O)NO)cc1` [PX106527, (2E,4E)-5-(4-Dimethylamino-phenyl)-penta-2,4-dienoic acid (5-hydroxycarbamoyl-pentyl)-amide] showed a melting point of 172 to 174 °C. Also, the pIC50 in the data set on HDAC (HeLa cell extract) (setting [2]) was 7.62. Further, the pIC50 with HDAC (HeLa cell extract) (comparative tables, read-out: HeLa IC50) was 7.62. Also, the pIC50 in the data set on HeLa cells was 6.00.

On to `O=C(/C=C/C=C/c1ccc([N+](=O)[O-])cc1)NCCCCCC(=O)NO` [PX105847, (2E,4E)-5-(4-Nitrophenyl)penta-2,4-dienoic acid (5-hydroxycarbamoyl-pentyl)-amide], for which the melting point lay within 111 to 113 °C. For the same compound, in the data set with HDAC (HeLa cell extract) (setting [2]), the pIC50 was 7.12. The pIC50 with HeLa cells was 5.08.

As to `C/C(=C\C#Cc1ccccc1)C(=O)NCCCCCC(=O)NO` [PX117451, E-2-Methyl-5-phenylpent-2-en-4-ynoic acid (5-hydroxycarbamoyl-pentyl)amide], the pIC50 is 7.51 with HDAC (HeLa cell extract) (setting [2]), 4.92 in data set [1] (48 h) and 4.66 with HeLa cells.
